Results published in the NIST ThermoML archive (doi:10.1016/j.jct.2011.09.001).

Key:
[1] = refractive index (Na D-line) (dimensionless); conditions: 101.33 kPa, Liquid, Standard Abbe refractometry
[2] = 101 kPa, Liquid; for speed of sound: Sing-around technique in a fixed-path interferometer; for mass density: Vibrating tube method
[3] = xn = mol fraction of the nth substance listed; conditions: 101 kPa, Liquid, x2 = 0; for speed of sound: Sing-around technique in a fixed-path interferometer; for mass density: Vibrating tube method
[4] = refractive index (Na D-line) (dimensionless); xn = mol fraction of the nth substance listed; conditions: 101 kPa, Liquid, Standard Abbe refractometry, x2 = 0

c1ccc2c(c1)CCCC2 [1,2,3,4-tetrahydronaphthalene]
Conditions | mass density, [2] [kg/m3] | refractive index, [1] | speed of sound, [2] [m/s]
293.15 K | 969.5 | 1.5414 | 1489.5
303.15 K | 961.6 | 1.5367 | 1450.1
313.15 K | 953.7 | 1.5321 | 1411.5
323.15 K | 945.7 | 1.5274 | 1373.6
333.15 K | 937.8 | 1.5228 | 1336.4
343.15 K | 929.8 | 1.518 | 1299.8

CCCCCCCCCC [decane]
Conditions | mass density, [2] [kg/m3] | refractive index, [1] | speed of sound, [2] [m/s]
293.15 K | 730.1 | 1.4123 | 1254.6
303.15 K | 722.6 | 1.4079 | 1215.1
313.15 K | 714.9 | 1.4033 | 1176.1
323.15 K | 707.3 | 1.3987 | 1137.6
333.15 K | 699.5 | 1.3942 | 1099.8
343.15 K | 691.8 | 1.3893 | 1062.3

CCCCCCCCCC [decane] + c1ccc2c(c1)CCCC2
Conditions | mass density, [3] [kg/m3] | refractive index, [4] | speed of sound, [3] [m/s]
293.15 K | 730.1 | 1.4123 | 1254.6
303.15 K | 722.6 | 1.4079 | 1215.1
313.15 K | 714.9 | 1.4033 | 1176.1
323.15 K | 707.3 | 1.3987 | 1137.6
333.15 K | 699.5 | 1.3942 | 1099.8
343.15 K | 691.8 | 1.3893 | 1062.3
